Data published in patent US20260097047A1, “Small molecule inhibitors of the ribosome biogenesis factor NVL2” (Board of Regents, The University of Texas System, priority 2023, published 2026).
Where two headings read alike, the source gives them in different places.

Tested on: HCT116 cells
Assay: Cell viability assay (CellTiter-Glo, 72 hours) in HCT116 human colorectal cancer cells
Type: cell-based
Summary of the method: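 Ten-point IC50 came from an asymmetric five-parameter fit of luminescence corrected to vehicle wells. ATP content was measured by CellTiter-Glo 72 h after dosing at 37 °C. Cells were seeded at 2,000/well the day before, with 0.5% DMSO in all wells.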

[1] = Table 7, cell viability assay, CellTiter-Glo, 72 hours, scaffold drawing 42 with R^2, R^3, X/Y, Z, read-out: Activity
[2] = Table 8, analogs of scaffold drawing 43 defined by R^2, R^3, X/Y, W, read-out: Activity (IC50 class, cell viability assay)
[3] = cell viability assay, Table 10 analogs of scaffold drawing 45 defined by R2, R3, X/Y, W, read-out: Activity

## COCCN1C(=O)c2cc(F)ccc2Sc2cc(NC(=O)c3ccoc3)ccc21 [—(CH2)2OMe; furan-3-yl; CH/CF; S]
[1]
  IC50: < 500 nM

## COCCN1C(=O)c2ccccc2Cc2cc(NC(=O)c3ccoc3)ccc21 [—(CH2)2OMe; furan-3-yl; CH/CH; CH2]
[1]
  IC50: 1000 to 5000 nM

## COCCN1C(=O)c2ccccc2Sc2cc(NC(=O)c3ccno3)ccc21 [—(CH2)2OMe; isoxazol-5-yl; CH/CH; S]
[1]
  IC50: 1000 to 5000 nM

## COCCN1C(=O)c2ccccc2Sc2cc(NC(=O)c3cocn3)ccc21 [—(CH2)2OMe; oxazol-4-yl; CH/CH; S]
[1]
  IC50: 1000 to 5000 nM

## COCCN1C(=O)c2ccccc2Sc2cc(NC(=O)c3cnccn3)ccc21 [—(CH2)2OMe; pyrazin-2-yl; CH/CH; S]
[1]
  IC50: 1000 to 5000 nM

## COCCN1C(=O)c2ccccc2Sc2cc(NC(=O)c3ccncc3)ccc21 [—(CH2)2OMe; pyrid-4-yl; CH/CH; S]
[1]
  IC50: 1000 to 5000 nM

## COCCN1C(=O)c2ccccc2Sc2cc(NC(=O)c3ncccn3)ccc21 [—(CH2)2OMe; pyrimidin-2-yl; CH/CH; S]
[1]
  IC50: 1000 to 5000 nM

## COCCN1C(=O)c2ccccc2Sc2cc(NC(=O)c3ccncn3)ccc21 [—(CH2)2OMe; pyrimidin-4-yl; CH/CH; S]
[1]
  IC50: 1000 to 5000 nM

## COCCN1C(=O)c2ccccc2Sc2cc(NC(=O)C3CC34CC4)ccc21 (centres unmarked) [—(CH2)2OMe; spiro[2.2]pentanyl; CH/CH; S]
[1]
  IC50: 1000 to 5000 nM

## COCCN1C(=O)c2ccccc2Sc2cc(NC(=O)c3cscn3)ccc21 [—(CH2)2OMe; thiazol-4-yl; CH/CH; S]
[1]
  IC50: 1000 to 5000 nM

## CCCOCCN1C(=O)c2ccccc2Sc2cc(NC(=O)c3ccc(OC)cc3)ccc21 [—(CH2)2OPr; 4-MeOPh; CH/CH; S]
[1]
  IC50: < 500 nM

## CNC(=O)CCCCCN1C(=O)c2ccccc2Sc2cc(NC(=O)c3ccoc3)ccc21 [—(CH2)5CONHMe; furan-3-yl; CH/CH; S]
[1]
  IC50: 1000 to 5000 nM

## COCC1CC(C(=O)Nc2ccc3c(c2)Sc2ccccc2C(=O)N3CC#CC(F)(F)F)C1 (centres unmarked) [—CH2CCCF3; 3-MeOCH2-cBu; CH/CH; CH]
[2]
  IC50: < 500 nM

## COCC1CC(C(=O)Nc2cnc3c(c2)Sc2ccccc2C(=O)N3CC#CC(F)(F)F)C1 (centres unmarked) [—CH2CCCF3; 3-MeOCH2-cBu; CH/CH; N]
[2]
  IC50: < 500 nM

## COc1ccc(C(=O)Nc2ccc3c(c2)Sc2ccccc2C(=O)N3CC#CC(F)(F)F)cc1 [—CH2CCCF3; 4-MeOPh; CH/CH; CH]
[2]
  IC50: < 500 nM

## O=C(C=CCO)Nc1cnc2c(c1)Sc1ccccc1C(=O)N2CC#CC(F)(F)F [—CH2CCCF3; CH—═CHCH2OH; CH/CH; N]
[2]
  IC50: < 500 nM

## COCC=CC(=O)Nc1ccc2c(c1)Sc1ccccc1C(=O)N2CC#CC(F)(F)F [—CH2CCCF3; CH═CHCH2OMe; CH/CH; CH]
[2]
  IC50: < 500 nM

## COCC=CC(=O)Nc1cnc2c(c1)Sc1ccccc1C(=O)N2CC#CC(F)(F)F [—CH2CCCF3; CH═CHCH2OMe; CH/CH; N]
[2]
  IC50: < 500 nM

## CO[C@H]1C[C@@H](C(=O)Nc2cnc3c(c2)Sc2ccccc2C(=O)N3CC#CC(F)(F)F)C1 [—CH2CCCF3; cis-3-MeOcBu; CH/CH; N]
[2]
  IC50: < 500 nM

## CO[C@H]1C[C@H](C(=O)Nc2cnc3c(c2)Sc2ccccc2C(=O)N3CC#CC(F)(F)F)C1 [—CH2CCCF3; trans-3-MeOcBu; CH/CH; N]
[2]
  IC50: < 500 nM

## COCC1CC(C(=O)Nc2ccc3c(c2)Sc2ccc(F)cc2C(=O)N3CC#CCF)C1 (centres unmarked) [—CH2CCCH2F; 3-MeOCH2-cBu; CH/CF; CH]
[2]
  IC50: < 500 nM

## CO[C@H]1C[C@@H](C(=O)Nc2ccc3c(c2)Sc2ccc(F)cc2C(=O)N3CC#CCF)C1 [—CH2CCCH2F; cis-3-MeOcBu; CH/CF; CH]
[2]
  IC50: < 500 nM

## CO[C@H]1C[C@H](C(=O)Nc2ccc3c(c2)Sc2ccc(F)cc2C(=O)N3CC#CCF)C1 [—CH2CCCH2F; trans-3-MeOcBu; CH/CF; CH]
[2]
  IC50: < 500 nM

## CO[C@H]1C[C@H](C(=O)Nc2cnc3c(c2)Sc2ccccc2C(=O)N3CC#CCF)C1 [—CH2CCCH2F; trans-3-MeOcBu; CH/CH; N]
[2]
  IC50: < 500 nM
[3]
  IC50: < 500 nM

## COCC1CC(C(=O)Nc2cnc3c(c2)Sc2cc(Cl)ccc2C(=O)N3CC#CCl)C1 (centres unmarked) [—CH2CCCl; 3-MeOCH2-cBu; CCI/CH; N]
[2]
  IC50: < 500 nM

## CO[C@H]1C[C@@H](C(=O)Nc2cnc3c(c2)Sc2cc(Cl)ccc2C(=O)N3CC#CCl)C1 [—CH2CCCl; cis-3-MeOcBu; CCl/CH; N]
[2]
  IC50: < 500 nM

## CO[C@H]1C[C@@H](C(=O)Nc2ccc3c(c2)Sc2ccc(F)cc2C(=O)N3CC#CCl)C1 [—CH2CCCl; cis-3-MeOcBu; CH/CF; CH]
[2]
  IC50: < 500 nM

## O=C(Nc1cnc2c(c1)Sc1cc(Cl)ccc1C(=O)N2CC#CCl)C1CC1CO (stereo not drawn) [—CH2CCCl; trans-2-HOCH2-cPr; CCl/CH; N]
[2]
  IC50: < 500 nM

## CO[C@H]1C[C@H](C(=O)Nc2ccc3c(c2)Sc2cc(Cl)ccc2C(=O)N3CC#CCl)C1 [—CH2CCCl; trans-3-MeOcBu; CCI/CH; CH]
[2]
  IC50: < 500 nM

## CO[C@H]1C[C@H](C(=O)Nc2cnc3c(c2)Sc2cc(Cl)ccc2C(=O)N3CC#CCl)C1 [—CH2CCCl; trans-3-MeOcBu; CCI/CH; N]
[2]
  IC50: < 500 nM

## CO[C@H]1C[C@H](C(=O)Nc2ccc3c(c2)Sc2ccc(F)cc2C(=O)N3CC#CCl)C1 [—CH2CCCl; trans-3-MeOcBu; CH/CF; CH]
[2]
  IC50: < 500 nM

## CO[C@H]1C[C@H](C(=O)Nc2cnc3c(c2)Sc2ccccc2C(=O)N3CC#CCl)C1 [—CH2CCCl; trans-3-MeOcBu; CH/CH; N]
[2]
  IC50: < 500 nM
[3]
  IC50: < 500 nM

## C#CCN1C(=O)c2cc(F)ccc2Sc2cc(NC(=O)C3CC(COC)C3)ccc21 (centres unmarked) [—CH2CCH; 3-MeOCH2-cBu; CH/CF; CH]
[2]
  IC50: < 500 nM

## C#CCN1C(=O)c2ccc(Cl)cc2Sc2cc(NC(=O)[C@H]3C[C@H](OC)C3)ccc21 [—CH2CCH; trans-3-MeOcBu; CCl/CH; CH]
[2]
  IC50: < 500 nM

## C#CCN1C(=O)c2cc(F)ccc2Sc2cc(NC(=O)[C@H]3C[C@H](OC)C3)ccc21 [—CH2CCH; trans-3-MeOcBu; CH/CF; CH]
[2]
  IC50: < 500 nM

## C#CCN1C(=O)c2ccccc2Sc2cc(NC(=O)[C@H]3C[C@H](OC)C3)ccc21 [—CH2CCH; trans-3-MeOcBu; CH/CH; CH]
[2]
  IC50: < 500 nM
[3]
  IC50: < 500 nM

## CC#CCN1C(=O)c2ccccc2Sc2cc(NC(=O)C3CNC(=O)C3)ccc21 (centres unmarked) [—CH2CCMe; 2-oxo-pyrrolidin-4-yl; CH/CH; CH]
[2]
  IC50: 1000 to 5000 nM

## CC#CCN1C(=O)c2ccccc2Sc2cc(NC(=O)c3cccc(CCC#N)c3)ccc21 [—CH2CCMe; 3-(2′-CNEt)Ph; CH/CH; CH]
[2]
  IC50: < 500 nM

## CC#CCN1C(=O)c2ccccc2Sc2cc(NC(=O)c3cccc(C(=O)N(C)C)c3)ccc21 [—CH2CCMe; 3-Me2NC(O)Ph; CH/CH; CH]
[2]
  IC50: < 500 nM

## CC#CCN1C(=O)c2cc(F)ccc2Sc2cc(NC(=O)C3CC(COC)C3)cnc21 (centres unmarked) [—CH2CCMe; 3-MeOCH2-cBu; CH/CF; N]
[2]
  IC50: < 500 nM

## CC#CCN1C(=O)c2ccc(F)cc2Sc2cc(NC(=O)c3cccc(OC)c3)ccc21 [—CH2CCMe; 3-MeOPh; CF/CH; CH]
[2]
  IC50: < 500 nM

## CC#CCN1C(=O)c2cc(F)ccc2Sc2cc(NC(=O)c3cccc(OC)c3)ccc21 [—CH2CCMe; 3-MeOPh; CH/CF; CH]
[2]
  IC50: < 500 nM

## CC#CCN1C(=O)c2ccccc2Sc2cc(NC(=O)c3cccc(OC)c3)ccc21 [—CH2CCMe; 3-MeOPh; CH/CH; CH]
[2]
  IC50: < 500 nM

## CC#CCN1C(=O)c2ccccc2Sc2cc(NC(=O)c3ccc(OC(F)(F)F)cc3)ccc21 [—CH2CCMe; 4-CF3OPh; CH/CH; CH]
[2]
  IC50: < 500 nM

## CC#CCN1C(=O)c2ccc(F)cc2Sc2cc(NC(=O)c3ccc(OCF)cc3)ccc21 [—CH2CCMe; 4-FH2COPh; CF/CH; CH]
[2]
  IC50: < 500 nM

## CC#CCN1C(=O)c2ccccc2Sc2cc(NC(=O)c3ccc(OCF)cc3)ccc21 [—CH2CCMe; 4-FH2COPh; CH/CH; CH]
[2]
  IC50: < 500 nM

## CC#CCN1C(=O)c2ccc(F)cc2Sc2cc(NC(=O)c3ccc(OC)cc3)ccc21 [—CH2CCMe; 4-MeOPh; CF/CH; CH]
[2]
  IC50: < 500 nM

## CC#CCN1C(=O)c2cc(F)ccc2Sc2cc(NC(=O)c3ccc(OC)cc3)ccc21 [—CH2CCMe; 4-MeOPh; CH/CF; CH]
[2]
  IC50: < 500 nM

## CC#CCN1C(=O)c2ccccc2Sc2cc(NC(=O)c3ccc(OC)cc3)ccc21 [—CH2CCMe; 4-MeOPh; CH/CH; CH]
[2]
  IC50: < 500 nM

## CC#CCN1C(=O)c2ccccc2Sc2cc(NC(=O)c3ccc(OC)cc3)cnc21 [—CH2CCMe; 4-MeOPh; CH/CH; N]
[2]
  IC50: < 500 nM

## CC#CCN1C(=O)c2ccccc2Sc2cc(NC(=O)C3CNC(=O)C3)ccc21 (centres unmarked) [—CH2CCMe; 5-oxopyrrolidin-3-yl; CH/CH; CH]
[2]
  IC50: < 500 nM

## C#Cc1ccc(C(=O)Nc2ccc3c(c2)Sc2ccccc2C(=O)N3CC#CC)cn1 [—CH2CCMe; 6-(HCC)pyrid-3-yl; CH/CH; CH]
[2]
  IC50: < 500 nM

## CC#CCN1C(=O)c2ccc(F)cc2Sc2cc(NC(=O)c3ccc(OC)nc3)ccc21 [—CH2CCMe; 6-MeO-pyrid-3-yl; CF/CH; CH]
[2]
  IC50: < 500 nM

## CC#CCN1C(=O)c2ccccc2Sc2cc(NC(=O)c3ccc(OC)nc3)ccc21 [—CH2CCMe; 6-MeO-pyrid-3-yl; CH/CH; CH]
[2]
  IC50: < 500 nM

## CC#CCN1C(=O)c2ccccc2Sc2cc(NC(=O)c3ccc(OC)nc3)cnc21 [—CH2CCMe; 6-MeO-pyrid-3-yl; CH/CH; N]
[2]
  IC50: < 500 nM

## CC#CCN1C(=O)c2ccccc2Sc2cc(NC(=O)CCC#N)ccc21 [—CH2CCMe; (CH2)2CN; CH/CH; CH]
[2]
  IC50: < 500 nM

## CC#CCN1C(=O)c2ccccc2Sc2cc(NC(=O)CCCO)cnc21 [—CH2CCMe; (CH2)3 OH; CH/CH; N]
[2]
  IC50: < 500 nM

## CC#CCN1C(=O)c2ccc(Cl)cc2Sc2cc(NC(=O)CCCO)ccc21 [—CH2CCMe; (CH2)3OH; CCl/CH; CH]
[2]
  IC50: < 500 nM

## CC#CCN1C(=O)c2cc(F)ccc2Sc2cc(NC(=O)CCCO)ccc21 [—CH2CCMe; (CH2)3OH; CH/CF; CH]
[2]
  IC50: < 500 nM

## CC#CCN1C(=O)c2ccccc2Sc2cc(NC(=O)CCCO)ccc21 [—CH2CCMe; (CH2)3OH; CH/CH; CH]
[2]
  IC50: < 500 nM

## CC#CCN1C(=O)c2cc(F)ccc2Sc2cc(NC(=O)CCCOC)ccc21 [—CH2CCMe; (CH2)3OMe; CH/CF; CH]
[2]
  IC50: < 500 nM

## CC#CCN1C(=O)c2ccc(Cl)cc2Sc2cc(NC(=O)CC3COC3)ccc21 [—CH2CCMe; (oxetan-3-yl)CH2; CCl/CH; CH]
[2]
  IC50: < 500 nM
